# pIC50: −log10 of the molar value. Values joined by “and” are separate entries in the source; they are usually repeats but may differ in a detail not shown here. Equal values may be shown once. Read-outs that look alike come from different tables or passages of the source.
# What was measured:
# c-kit = c-kit (Homo sapiens, UniProt P10721); conditions: treatment of uveal melanoma cell lines
# [1] = tested on: uveal melanoma cell lines (OCM-1, OCM-3, 92-1 and mel 202); test: Survival / cell death of the four uveal melanoma cell lines; type: cell-based, human
# Excerpt: Cell culture: Four cell lines obtained from human primary uveal melanomas (OCM-1, OCM-3, 92-1 and mel 202) are used.
# OCM-3 cells = test: XTT cell viability, uveal melanoma cell line OCM-3; conditions: for percentages of living cells as compared to 100% survival of untreated cells: runs 1 and 2
# Excerpt: (§1) The test is based on a colorimetric change of the yellow tetrazolium slat XTT into orange formazan dye by the respiratory chain of viable cells (Roehm et al., 1991, J. Immunol. Assay, 142:257-265).
# [2] = tested on: DFB skin melanoma cell line; conditions: read-out: IC50 of Salt I on survival
# Excerpt: (§2) Cell proliferation kit II is purchased from Roche Diagnostic GmbH (Mannheim, Germany). The test is based on a colorimetric change of the yellow tetrazolium slat XTT into orange formazan dye by the respiratory chain of viable cells (Roehm et al., 1991, J. Immunol. Assay, 142:257-265).
# mel 202 cells = test: XTT cell viability, uveal melanoma cell line mel 202; conditions: for percentages of living cells as compared to 100% survival of untreated cells: runs 1 and 2
# Excerpt: as §1
# OCM-1 cells = test: XTT cell viability, uveal melanoma cell line OCM-1; conditions: for percentages of living cells as compared to 100% survival of untreated cells: runs 1 and 2
# Excerpt: as §1
# [3] = tested on: BE skin melanoma cell line; conditions: read-out: IC50 of Salt I on survival
# Excerpt: as §2
# UM 92-1 cells = conditions: runs 1 and 2
# Excerpt: as §1
# Sequence of c-kit (P10721 26-976): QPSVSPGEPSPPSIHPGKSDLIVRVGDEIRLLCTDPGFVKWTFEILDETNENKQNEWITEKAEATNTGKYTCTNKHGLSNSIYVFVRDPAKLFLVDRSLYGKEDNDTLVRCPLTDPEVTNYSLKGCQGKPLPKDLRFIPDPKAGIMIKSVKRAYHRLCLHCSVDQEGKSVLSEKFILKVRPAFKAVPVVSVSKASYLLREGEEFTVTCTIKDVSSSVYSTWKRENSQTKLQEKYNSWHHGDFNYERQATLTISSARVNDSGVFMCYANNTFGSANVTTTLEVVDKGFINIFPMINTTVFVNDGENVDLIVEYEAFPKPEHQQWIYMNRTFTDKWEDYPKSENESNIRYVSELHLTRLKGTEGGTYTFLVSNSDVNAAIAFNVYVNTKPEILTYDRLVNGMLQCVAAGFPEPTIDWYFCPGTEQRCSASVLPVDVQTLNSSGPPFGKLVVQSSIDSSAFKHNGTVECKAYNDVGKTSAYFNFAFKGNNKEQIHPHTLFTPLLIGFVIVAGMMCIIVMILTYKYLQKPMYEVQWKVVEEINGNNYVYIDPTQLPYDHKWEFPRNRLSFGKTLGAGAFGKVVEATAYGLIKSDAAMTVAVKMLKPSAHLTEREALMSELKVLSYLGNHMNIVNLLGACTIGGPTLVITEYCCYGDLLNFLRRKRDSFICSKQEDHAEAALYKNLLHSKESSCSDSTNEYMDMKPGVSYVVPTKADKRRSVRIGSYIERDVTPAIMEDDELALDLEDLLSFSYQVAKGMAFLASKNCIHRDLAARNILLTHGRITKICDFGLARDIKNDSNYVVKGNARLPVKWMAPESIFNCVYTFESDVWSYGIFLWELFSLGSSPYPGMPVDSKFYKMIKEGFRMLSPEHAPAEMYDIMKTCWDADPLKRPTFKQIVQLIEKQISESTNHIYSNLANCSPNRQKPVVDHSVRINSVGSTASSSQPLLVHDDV
smiles,measurement,setting,value
Cc1ccc(NC(=O)c2ccc(CN3CCN(C)CC3)cc2)cc1Nc1nccc(-c2cccnc2)n1 [Compound I],effect on c-kit auto-phosphorylation,c-kit,blocks c-kit auto-phosphorylation
same,cell death in vitro,[1]; four uveal melanoma cell lines,promotes in vitro cell death
CS(=O)(=O)O.Cc1ccc(NC(=O)c2ccc(CN3CCN(C)CC3)cc2)cc1Nc1nccc(-c2cccnc2)n1 [Salt I],Salt I responsiveness,skin melanoma cell lines,no respondent
same,cell loss,"[1]; uveal melanoma cell lines, even at low concentrations of Salt I",drastic cell loss
same,percentages of living cells as compared to 100% survival of untreated cells,"OCM-3 cells; OCM-3, 24 h, 0.3 μM Salt I",100% and 97%
same,percentages of living cells as compared to 100% survival of untreated cells,"OCM-3 cells; OCM-3, 24 h, 0.6 μM Salt I",100% and 105%
same,percentages of living cells as compared to 100% survival of untreated cells,"OCM-3 cells; OCM-3, 24 h, 5 μM Salt I",85% and 83%
same,percentages of living cells as compared to 100% survival of untreated cells,"OCM-3 cells; OCM-3, 24 h, 10 μM Salt I",87% and 98%
same,percentages of living cells as compared to 100% survival of untreated cells,"OCM-3 cells; OCM-3, 48 h, 0.3 μM Salt I",43% and 39%
same,percentages of living cells as compared to 100% survival of untreated cells,"OCM-3 cells; OCM-3, 48 h, 0.6 μM Salt I",34% and 27%
same,pIC50,"OCM-3 cells; read-out: IC50 of Salt I on survival, uveal melanoma cell line OCM-3, Example 1: 48 hours exposure",6.82
same,pIC50,[2],< 4.70
same,percentages of living cells as compared to 100% survival of untreated cells,"mel 202 cells; mel 202, 24 h, 0.3 μM Salt I",98% and 105%
same,percentages of living cells as compared to 100% survival of untreated cells,"mel 202 cells; mel 202, 24 h, 0.6 μM Salt I",92% and 104%
same,percentages of living cells as compared to 100% survival of untreated cells,"mel 202 cells; mel 202, 24 h, 5 μM Salt I",97% and 101%
same,percentages of living cells as compared to 100% survival of untreated cells,"mel 202 cells; mel 202, 24 h, 10 μM Salt I",78% and 87%
same,percentages of living cells as compared to 100% survival of untreated cells,"mel 202 cells; mel 202, 48 h, 0.3 μM Salt I",23% and 14%
same,percentages of living cells as compared to 100% survival of untreated cells,"mel 202 cells; mel 202, 48 h, 0.6 μM Salt I",19% and 17%
same,percentages of living cells as compared to 100% survival of untreated cells,"mel 202 cells; mel 202, 48 h, 5 μM Salt I",23% and 15%
same,pIC50,"mel 202 cells; read-out: IC50 of Salt I on survival, uveal melanoma cell line mel 202, Example 1: 48 hours exposure",7.15
same,percentages of living cells as compared to 100% survival of untreated cells,"OCM-1 cells; OCM-1, 24 h, 0.3 μM Salt I",95% and 97%
same,percentages of living cells as compared to 100% survival of untreated cells,"OCM-1 cells; OCM-1, 24 h, 0.6 μM Salt I",87% and 82%
same,percentages of living cells as compared to 100% survival of untreated cells,"OCM-1 cells; OCM-1, 24 h, 5 μM Salt I",63%
same,percentages of living cells as compared to 100% survival of untreated cells,"OCM-1 cells; OCM-1, 24 h, 10 μM Salt I",50% and 52%
same,percentages of living cells as compared to 100% survival of untreated cells,"OCM-1 cells; OCM-1, 48 h, 0.3 μM Salt I",62% and 59%
same,percentages of living cells as compared to 100% survival of untreated cells,"OCM-1 cells; OCM-1, 48 h, 0.6 μM Salt I",40% and 37%
same,percentages of living cells as compared to 100% survival of untreated cells,"OCM-1 cells; OCM-1, 48 h, 5 μM Salt I",27% and 23%
same,percentages of living cells as compared to 100% survival of untreated cells,"OCM-1 cells; OCM-1, 48 h, 10 μM Salt I",23% and 29%
same,pIC50,"OCM-1 cells; read-out: IC50 of Salt I on survival, uveal melanoma cell line OCM-1, Example 1: 48 hours exposure",6.40
same,pIC50,[3],< 4.70
same,percentages of living cells as compared to 100% survival of untreated cells,"UM 92-1 cells; UM 92-1, 24 h, 0.3 μM Salt I",98% and 91%
same,percentages of living cells as compared to 100% survival of untreated cells,"UM 92-1 cells; UM 92-1, 24 h, 0.6 μM Salt I",95%
same,percentages of living cells as compared to 100% survival of untreated cells,"UM 92-1 cells; UM 92-1, 24 h, 5 μM Salt I",83% and 75%
same,percentages of living cells as compared to 100% survival of untreated cells,"UM 92-1 cells; UM 92-1, 24 h, 10 μM Salt I",70% and 83%
same,percentages of living cells as compared to 100% survival of untreated cells,"UM 92-1 cells; UM 92-1, 48 h, 0.3 μM Salt I",85% and 90%
same,percentages of living cells as compared to 100% survival of untreated cells,"UM 92-1 cells; UM 92-1, 48 h, 0.6 μM Salt I",79% and 71%
same,percentages of living cells as compared to 100% survival of untreated cells,"UM 92-1 cells; UM 92-1, 48 h, 5 μM Salt I",15% and 22%
same,percentages of living cells as compared to 100% survival of untreated cells,"UM 92-1 cells; UM 92-1, 48 h, 10 μM Salt I",0% and 5%
